In US20030008843A1, “Bulking agents as satiety agents” (priority 2001, published 2003):

Experiments:
[1] = ad libitum test lunch energy intake 1.5 hours after yoghurt pre-load, days 1 and 10 (Example 1); assay type: in vivo, human; conditions: for difference in average test meal energy intake versus control (significance): paired comparison; for difference in average test meal energy intake versus control (significance) / combined (pre-load and test lunch) energy intake versus control (significance): p<0.05; for combined (pre-load and test lunch) energy intake versus control (significance): post-hoc paired comparisons
Text: Eight female and seven male subjects with mean ages ranging from about 29.5 to 30.7 yr. were used in the study. They were lean (having BMI of 21.6 Kg/m^2-23.8 Kg/m^2), and they exercised between 2-3 times per week. There were four experimental conditions that all subjects completed in a counterbalanced order with each condition separated by a one-week washout period. During each experimental condition, subjects were provided with either control or test yoghurts to consume as part of their normal diet for 10 consecutive days. The four experimental conditions differed according to the type of carbohydrate added to the yoghurt consumed: [table] Volunteers were required to consume one portion (200 g) of yoghurt on each of the 10 days. Therefore, energy content of the yoghurts varied between the four yoghurt formulations while weight was held constant. Subjects consumed the yoghurts for 10 consecutive days. However, days 2-9 were free-living during which time they were not required to visit the human appetite research unit (HARU), where the studies described hereinbelow were performed. On days 1 and 10 (test days), subjects were required to visit the HARU for a fixed breakfast at 8:30 a.m. and an ad libitum test lunch. The energy and nutrient content of the breakfast, was fixed for each of the conditions. Immediately after breakfast subjects were free to leave the unit and instructed to consume the yoghurt at 11:00am and not to consume any other food or drink during the breakfast-lunch interval. At 12:30 subjects returned to the unit for the ad libitum test lunch and were instructed to eat until a comfortable level of fullness. The food was weighed immediately before and after the test lunch to determine the energy and nutrient of food consumed. The test lunch was mixed composition (31% Fat, 53% Carbohydrate and 16% Protein) and consisted of sandwiches, […] fruit. Immediately after the test lunch subjects were provided with their yoghurts for days 2-9 and were instructed to return at 8:30 on day 10. On days 1 and 10, volunteers were provided with an ad libitum lunch 1.5 hours following consumption of the yoghurt pre-load.

[2] = after ingestion of 25 g xylitol; control 58±5 min; cited from earlier work
[3] = after oral preloading of 25 g xylitol with water, cited from earlier work
[4] = humans; cited from earlier work

Compound	Suppression (%) in energy intake compared with the control yoghurt, All ([1]; all subjects, 25 g/day in 200 g yoghurt, test lunch 1.5 h after pre-load) [%]	Suppression (%) in combined preload plus test meal energy intake compared with the control yoghurt, All ([1]; all subjects, energy content of pre-load accounted for) [%]	Suppression (%) in combined preload plus test meal energy intake compared with the control yoghurt, Females ([1]; females, energy content of pre-load accounted for) [%]	Suppression (%) in energy intake compared with the control yoghurt, Females ([1]; females, test lunch 1.5 h after pre-load) [%]	Suppression (%) in combined preload plus test meal energy intake compared with the control yoghurt, Males ([1]; males, energy content of pre-load accounted for) [%]	Suppression (%) in energy intake compared with the control yoghurt, Males ([1]; males, test lunch 1.5 h after pre-load) [%]	difference in average test meal energy intake versus control (significance) [1]	difference in average test meal energy intake versus control (significance) ([1]; listed as xylitol)	combined (pre-load and test lunch) energy intake versus control (significance) [1]	combined (pre-load and test lunch) energy intake versus control (significance) ([1]; listed as xylitol)	gastric emptying T-1/2 [2] [min]	reduction in calories versus control [3] [%]	food intake ([3]; control 920±60 Kcal) [kcal]	reduction of human absorption of fat [4] [%]
OC[C@@H](O)[C@H](O)[C@@H](O)CO [Xyl, Xylitol]	11.9	14.8	11.6	6.4	16.1	15.3	statistically significant	significant reduction	significantly lower	significant calorie reduction	91 ± 7	25	690 ± 45	–
CCCCCCCCCCC[C@@H](C[C@@H]1OC(=O)[C@H]1CCCCCC)OC(=O)[C@H](CC(C)C)NC=O [tetrahydrolipostatin]	–	–	–	–	–	–	–	–	–	–	–	–	–	30
